Values quoted from earlier work in patent US8105627B2, “Extended release venlafaxine tablet formulation” (priority 2003, dated 2012).
Structures can show the parent of a compound that is named as a salt.

Settings: plural daily dosing regimen

patients experiencing nausea: about forty five percent
patients in whom vomiting occurs: about seventeen percent
Compound: COc1ccc(C(CN(C)C)C2(O)CCCCC2)cc1 (centres unmarked) [venlafaxine hydrochloride, 1-[(2-dimethylamino)-1-(4-methoxyphenyl)ethyl]cyclohexanol]
